Assay [1] has as its system CaMV 35S promoter (p35S:CAT transgenic tobacco line). On the procedure: (§1) A selected seedling was grown to maturity to produce a homozygous line. Seedlings of this plant were tested for CAT protein in comparison to seedlings of a similar plant transformed with a construct which expressed CAT from the constitutive high activity CaMV 35S promoter (Table 1).
(§2) Individual seedlings from a homozygous transgenic tobacco line carrying the CAT gene expressed from the alcA promoter were compared with those from a similar line transformed with p35S:CAT. […] Induction was achieved by the addition of 0.1% ethanol to the growth medium for 120 h. The induction medium was replaced at 58 h to maintain ethanol concentrations. One leaf was taken prior to induction, and one leaf after induction. CAT ELISA (Boehringer Mannheim) was performed on crude cell extracts; total protein was determined as described previously (Bradford, Anal Biochem 72: 243 (1976). All values are ng CAT protein per mg total protein, and represent the mean of nine individual replicates±one standard deviation.

In assay [2] the test system is alcA promoter (p35S:alcR / palcA:CAT transgenic tobacco line). On the procedure: as §1, §2
The subject of assay [3] is palc:Inv transgenic tobacco plants. The note with it: 1% ethanol root drench. On the procedure:
(§3) Phenotypic modification started 72 hours after ethanol induction and was strongest after 96 hours. The final phenotype was identical to the previously published results using the 35S CaMV promoter to drive the expression of cytosolic yeast invertase (Sonnewald et al Plant J. 1, 95 (1991)). Development of this phenotype followed maximal invertase activity and was most severe in transformant 28. Photosynthesis fluorescence measurements were used to monitor changes of quantum yield (Schreiber et al, in Ecophysiology of Photosynthesis Vol. 100, Schuize and Caldwell, Eds (Springer Verlag, Berlin, 1994), pp 49-70.) of all three transformant lines in vivo throughout the induction experiment.
Fluorescence measurements were used to monitor changes in photosynthetic parameters during induction of invertase activity using the PAM-2000 instrument (Walz, Effeltrich, Germany). Quantum use efficiency (quantum yield) of photosystem II (PSII) was measured by applying a saturating light beam on light adapted leaves of wildtype and transformed plants (palc:Inv). Before each measurement, it was verified that the saturating pulse had reached a plateau to allow an accurate determination of Fm′. The intensities of the measuring and saturating light beam were adjusted to reach a FO′ value close to 0.4. Measurements were conducted on different leaves having reached 8% (A), 15% (B), or 45% (C) of maximal leaf area of five plants of each genotype at the indicated time points.
Quantum yield of three succeeding light adapted leaves (leaf A-C) starting from the top of the plant was measured using a PAM-2000 instrument at the time points indicated. Values given are the means +−SE (n=5). For plants of line 28, quantum yield was reduced by 23% (p<0.05) and 27% (p<0.05) and for plants of line 10 only by 6% and 17% (p<0.05), respectively.

In assay [4] the test system is palcA:cyInv transgenic tobacco plants. How it is done: as §3

Where two headings read alike, the source gives them in different places.

For `CCO` [Ethanol, ethanol], in assay [1] (ethanol-treated p35S:CAT seedlings), the “reduction in CAT protein levels relative to the untreated control” value amounted to 29%. Also, the CAT protein level in assay [1] (p35S:CAT seedlings, 0.1% ethanol in growth medium for 120 h, mean of nine replicates ± one SD) is given as 55.46 ± 10.85 ng CAT protein per mg total protein; in assay [2] (homozygous palcA:CAT seedlings, 0.1% ethanol in growth medium for 120 h, mean of nine replicates ± one SD), 30.37 ± 3.91 ng CAT protein per mg total protein. In assay [2] (ethanol-induced palc:CAT vs ethanol-treated p35S:CAT), the “CAT activity of induced palc:CAT seedlings relative to ethanol-treated p35S:CAT seedlings” value turned out to be 55%. For the same molecule, the “CAT activity of induced palc:CAT seedlings relative to untreated p35S:CAT seedlings” value in assay [2] (ethanol-induced palc:CAT vs untreated p35S:CAT) came to 39%. Further, the “reduction of quantum yield” value in assay [3] (line 10, leaf B (15% of maximal leaf area)) stood at 6%; in assay [3] (line 10, leaf C (45% of maximal leaf area), p<0.05) it was 17%; in assay [3] (line 28, leaf B (15% of maximal leaf area), p<0.05) it was 23%; in assay [3] (line 28, leaf C (45% of maximal leaf area), p<0.05) it was 27%. Also, the “invertase activity in transgenic plants at two ethanol concentrations” value in assay [4] (5% vs 1% ethanol (FIG. 3)) was “dose-dependent”. The “time after first addition of ethanol at which elevated invertase activity was measurable” value in assay [4] (lines 10, 27 and 28, root drench 100 ml 1% ethanol (v/v)) was 6 h. For the same molecule, the “time after initial root drenching at which invertase activity reached a plateau” value in assay [4] (lines 10 and 27, root drench 100 ml 1% ethanol, repeated at 48 and 72 hours) was found to be 96 h. Besides, in assay [4] (palcA:cyInv lines, strongest after 96 hours), the “start of phenotypic modification after ethanol induction” value was determined as 72 h.

Source of the values: patent publication US7470831B1, “Genetic method” (Syngenta Limited, priority 1997, dated 2008).
